Reference: ChEMBL document CHEMBL1201862, “PubChem BioAssay data set” (2004)
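Dose response: 5 concentrations. Exposure: 48 h. Format: 96-well plates. Endpoint: linear interpolation; highest concentration if not reached. GI50 marks 50% less growth.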 Calls of active or inactive are those of the source. Cut-off read from the data, not from the text of the source: active = GI50 up to about 1.1 µM and inactive = higher.

Columns and labels:
Experiment in all cases: DTP human tumour cell line panel, 48 h
[1] = system: OVCAR-4
[2] = system: UACC-257
[3] = system: COLO 205
[4] = system: RPMI-8226
[5] = system: HCC 2998
[6] = system: ACHN
[7] = system: CAKI-1
[8] = system: HCT-15
[9] = system: NCI-H460
[10] = system: U-251
[11] = system: SNB-75
[12] = system: SK-OV-3
[13] = system: LOX IMVI
[14] = system: NCI-H226
[15] = system: HOP-92
[16] = system: HL-60
[17] = system: 786-0
[18] = system: TK-10
[19] = system: A549
[20] = system: SR
[21] = system: M19-MEL
[22] = system: OVCAR-5
[23] = system: EKVX
[24] = system: NCI-H23
[25] = system: HOP-62
[26] = system: MOLT-4
[27] = system: SW-620
[28] = system: SF-268
[29] = system: RXF 393
[30] = system: SF-295
[31] = system: NCI-H522
[32] = system: K562
[33] = system: SNB-19
[34] = system: SF-539
[35] = system: RXF 631
[36] = system: XF498
[37] = system: IGROV-1
[38] = system: M14
[39] = system: DMS-114
[40] = system: DMS-273
[41] = system: SK-MEL-2
[42] = system: HCT-116
[43] = system: SK-MEL-28
[44] = system: HT-29
[45] = system: KM12
[46] = system: Malme-3M
[47] = system: DLD-1
[48] = system: KM-20L2
[49] = system: SNB-78
[50] = system: UACC-62
[51] = system: CCRF-CEM
[52] = system: UO-31
[53] = system: SN12C
[54] = system: SK-MEL-5
[55] = system: HOP-18
[56] = system: A498
[57] = system: LXFL 529
[58] = system: OVCAR-8
[59] = system: OVCAR-3

CCOC(=O)c1ccc(O)cc1 [ETHYLPARABEN]
GI50 [1]: > 100 µM (inactive) | GI50 [2]: > 100 µM (inactive) | GI50 [3]: > 100 µM (inactive) | GI50 [4]: > 100 µM (inactive) | GI50 [5]: > 100 µM (inactive) | GI50 [6]: > 100 µM (inactive) | GI50 [7]: > 100 µM (inactive) | GI50 [8]: > 100 µM | GI50 [9]: > 100 µM (inactive) | GI50 [10]: > 100 µM (inactive) | GI50 [11]: > 100 µM (inactive) | GI50 [12]: > 100 µM (inactive) | GI50 [13]: > 100 µM (inactive) | GI50 [14]: > 100 µM (inactive) | GI50 [15]: > 100 µM (inactive) | GI50 [16]: > 100 µM (inactive) | GI50 [17]: > 100 µM (inactive) | GI50 [18]: > 100 µM (inactive) | GI50 [19]: > 100 µM (inactive) | GI50 [20]: > 100 µM (inactive) | GI50 [21]: > 100 µM (inactive) | GI50 [22]: > 100 µM (inactive) | GI50 [23]: > 100 µM (inactive) | GI50 [24]: > 100 µM (inactive) | GI50 [25]: > 100 µM (inactive) | GI50 [26]: > 100 µM (inactive) | GI50 [27]: > 100 µM (inactive) | GI50 [28]: > 100 µM (inactive) | GI50 [29]: > 100 µM (inactive) | GI50 [30]: > 100 µM (inactive) | GI50 [31]: > 100 µM (inactive) | GI50 [32]: > 100 µM (inactive) | GI50 [33]: > 100 µM (inactive) | GI50 [34]: > 100 µM (inactive) | GI50 [35]: > 100 µM (inactive) | GI50 [36]: > 100 µM (inactive) | GI50 [37]: > 100 µM (inactive) | GI50 [38]: > 100 µM (inactive) | GI50 [39]: > 100 µM (inactive) | GI50 [40]: 55.5 µM (inactive) | GI50 [41]: > 100 µM (inactive) | GI50 [42]: > 100 µM (inactive) | GI50 [43]: > 100 µM (inactive) | GI50 [44]: > 100 µM (inactive) | GI50 [45]: > 100 µM (inactive) | GI50 [46]: > 100 µM (inactive) | GI50 [47]: > 100 µM (inactive) | GI50 [48]: > 100 µM (inactive) | GI50 [49]: > 100 µM (inactive) | GI50 [50]: > 100 µM (inactive) | GI50 [51]: > 100 µM (inactive) | GI50 [52]: > 100 µM (inactive)

CCc1nc2ccccc2c(=O)n1/N=C(\N=N\c1ccc(Cl)cc1)c1ccc(N(C)C)cc1
GI50 [53]: 27.7 µM (inactive) | GI50 [3]: 27.2 µM (inactive) | GI50 [4]: 17.4 µM (inactive) | GI50 [6]: 28.7 µM (inactive) | GI50 [8]: 29.2 µM | GI50 [9]: 24.5 µM (inactive) | GI50 [10]: 27.3 µM (inactive) | GI50 [12]: 27.7 µM (inactive) | GI50 [13]: 47.5 µM (inactive) | GI50 [15]: 13.7 µM (inactive) | GI50 [16]: 20.5 µM (inactive) | GI50 [18]: 61.9 µM (inactive) | GI50 [19]: 42.7 µM (inactive) | GI50 [54]: 21.9 µM (inactive) | GI50 [23]: 28.1 µM (inactive) | GI50 [24]: 22.8 µM (inactive) | GI50 [25]: 13.3 µM (inactive) | GI50 [26]: 20.6 µM (inactive) | GI50 [27]: 45.1 µM (inactive) | GI50 [28]: 32.1 µM (inactive) | GI50 [29]: 56 µM (inactive) | GI50 [55]: 25.5 µM (inactive) | GI50 [31]: 22.3 µM (inactive) | GI50 [32]: 16.7 µM (inactive) | GI50 [34]: 30.3 µM (inactive) | GI50 [56]: 38.3 µM (inactive) | GI50 [35]: 67.6 µM (inactive) | GI50 [57]: 23.7 µM (inactive) | GI50 [36]: 25.1 µM (inactive) | GI50 [58]: 34.9 µM (inactive) | GI50 [38]: 33.3 µM (inactive) | GI50 [39]: 12.2 µM (inactive) | GI50 [40]: 32.3 µM (inactive) | GI50 [42]: 17.7 µM (inactive) | GI50 [43]: 30.1 µM (inactive) | GI50 [47]: 30.1 µM (inactive) | GI50 [48]: 23.6 µM (inactive) | GI50 [51]: 27.6 µM (inactive) | GI50 [52]: 12.2 µM (inactive)

O=C(CC(=O)C1=CNc2ccccc2S1)C(=O)Nc1ccc(Cl)cc1
GI50 [1]: > 50 µM (inactive) | GI50 [2]: > 50 µM (inactive) | GI50 [53]: > 50 µM (inactive) | GI50 [3]: > 50 µM (inactive) | GI50 [4]: > 50 µM (inactive) | GI50 [5]: > 50 µM (inactive) | GI50 [6]: > 50 µM (inactive) | GI50 [7]: > 50 µM (inactive) | GI50 [8]: > 50 µM | GI50 [9]: > 50 µM (inactive) | GI50 [10]: > 50 µM (inactive) | GI50 [11]: > 50 µM (inactive) | GI50 [12]: > 50 µM (inactive) | GI50 [13]: > 50 µM (inactive) | GI50 [14]: 49.4 µM (inactive) | GI50 [15]: > 50 µM (inactive) | GI50 [16]: > 34 µM (inactive) | GI50 [17]: > 50 µM (inactive) | GI50 [18]: > 50 µM (inactive) | GI50 [19]: > 50 µM (inactive) | GI50 [54]: > 50 µM (inactive) | GI50 [21]: > 50 µM (inactive) | GI50 [22]: > 50 µM (inactive) | GI50 [23]: > 50 µM (inactive) | GI50 [24]: > 50 µM (inactive) | GI50 [25]: > 50 µM (inactive) | GI50 [26]: > 50 µM (inactive) | GI50 [27]: > 50 µM (inactive) | GI50 [28]: > 50 µM (inactive) | GI50 [29]: > 50 µM (inactive) | GI50 [30]: > 50 µM (inactive) | GI50 [31]: > 50 µM (inactive) | GI50 [32]: > 24.3 µM (inactive) | GI50 [33]: > 50 µM (inactive) | GI50 [34]: > 50 µM (inactive) | GI50 [56]: > 50 µM (inactive) | GI50 [35]: > 50 µM (inactive) | GI50 [57]: > 50 µM (inactive) | GI50 [36]: > 50 µM (inactive) | GI50 [37]: > 50 µM (inactive) | GI50 [58]: > 50 µM (inactive) | GI50 [38]: > 50 µM (inactive) | GI50 [39]: > 50 µM (inactive) | GI50 [40]: > 50 µM (inactive) | GI50 [41]: > 50 µM (inactive) | GI50 [42]: > 50 µM (inactive) | GI50 [43]: > 50 µM (inactive) | GI50 [44]: > 50 µM (inactive) | GI50 [45]: > 50 µM (inactive) | GI50 [46]: > 50 µM (inactive) | GI50 [47]: > 50 µM (inactive) | GI50 [48]: > 50 µM (inactive) | GI50 [59]: > 50 µM (inactive) | GI50 [49]: > 50 µM (inactive) | GI50 [50]: > 50 µM (inactive) | GI50 [51]: > 50 µM (inactive) | GI50 [52]: > 50 µM (inactive)

CCCCCCCCCCCCCCCCc1c(O)nc(NC#N)nc1C(=O)OC
GI50 [1]: > 25 µM (inactive) | GI50 [2]: > 25 µM (inactive) | GI50 [53]: > 25 µM (inactive) | GI50 [3]: > 25 µM (inactive) | GI50 [4]: > 25 µM (inactive) | GI50 [5]: > 25 µM (inactive) | GI50 [6]: > 25 µM (inactive) | GI50 [8]: > 25 µM | GI50 [9]: > 25 µM (inactive) | GI50 [10]: > 25 µM (inactive) | GI50 [11]: > 25 µM (inactive) | GI50 [12]: > 25 µM (inactive) | GI50 [13]: > 25 µM (inactive) | GI50 [14]: > 25 µM (inactive) | GI50 [15]: > 25 µM (inactive) | GI50 [16]: > 25 µM (inactive) | GI50 [17]: > 25 µM (inactive) | GI50 [18]: > 25 µM (inactive) | GI50 [19]: > 25 µM (inactive) | GI50 [21]: > 25 µM (inactive) | GI50 [22]: > 25 µM (inactive) | GI50 [23]: > 25 µM (inactive) | GI50 [24]: > 25 µM (inactive) | GI50 [25]: > 25 µM (inactive) | GI50 [26]: > 25 µM (inactive) | GI50 [27]: > 25 µM (inactive) | GI50 [28]: > 25 µM (inactive) | GI50 [29]: > 25 µM (inactive) | GI50 [30]: > 25 µM (inactive) | GI50 [55]: > 25 µM (inactive) | GI50 [31]: > 25 µM (inactive) | GI50 [32]: > 25 µM (inactive) | GI50 [33]: > 25 µM (inactive) | GI50 [34]: > 25 µM (inactive) | GI50 [56]: > 25 µM (inactive) | GI50 [35]: > 25 µM (inactive) | GI50 [57]: > 25 µM (inactive) | GI50 [36]: > 25 µM (inactive) | GI50 [58]: > 25 µM (inactive) | GI50 [38]: > 25 µM (inactive) | GI50 [39]: > 25 µM (inactive) | GI50 [41]: > 25 µM (inactive) | GI50 [42]: > 25 µM (inactive) | GI50 [43]: > 25 µM (inactive) | GI50 [44]: > 25 µM (inactive) | GI50 [45]: > 25 µM (inactive) | GI50 [46]: > 25 µM (inactive) | GI50 [47]: > 25 µM (inactive) | GI50 [48]: > 25 µM (inactive) | GI50 [59]: > 25 µM (inactive) | GI50 [49]: > 25 µM (inactive) | GI50 [51]: > 25 µM (inactive) | GI50 [52]: > 25 µM (inactive)
